For one data set, the system named is Cycad Asian Scale. The experiment in a line: Killing of scale insects / exterminating Cycad Asian Scale populations (general statements). To be noted: in vivo.
For data set [1] the following is noted: can be used outdoors as well as indoors; cited from earlier work.

For the compound `CCOC(=O)CC(SP(=S)(OC)OC)C(=O)OCC` (centres unmarked) [Malathion, malathion], the “usefulness in exterminating Cycad Asian Scale populations” value in the data set on Cycad Asian Scale is “particularly useful”.

Turning to `CC(COc1ccc(Oc2ccccc2)cc1)Oc1ccccn1` (centres unmarked) [Nylar], in data set [1], the photostability entry is “photostable”.

The values above are taken from US20090233940A1, “Insecticide Compositions” (priority 2008, published 2009).
